Test results reported in publication PMC12130509, “Development of a small compound that regulates the function of a maltodextrin-binding protein of Streptococcus pyogenes by multifaceted screenings” (Scientific Reports, 2025).

Columns and labels:
[1] = molecular target: T1, SPs0871 (Streptococcus pyogenes, UniProt A0A0H2UUQ6); test: MST binding analysis; conditions: for concentration-dependent response by MST: 15.3 nM to 500 µM compound; for concentration-dependent response by MST / Kd: 100 nM SPs0871; for Kd: read-out: KD values calculated by MST analysis
Description: (§1) MST was performed on a Monolith NT.115 instrument using Monolith NT.115 Series, Premium Capillaries, and His-tagged SPs0871 was labeled using the Monolith His-Tag Labeling Kit RED-Tris-NTA 2nd Generation (NanoTemper Technologies GmbH, Munich, Germany). The final concentration of SPs0871 was 100 nM, and the final concentration of the dye was 5 nM. The buffer was PBS-T (PBS, 0.005% Tween 20), 5% DMSO. A range of concentrations of compounds (15.3 nM to 500 µM) was tested.

[2] = system: MalE1; test: MST analysis of bacterial species specificity; type: binding, L. casei
Text: Finally, to gain an insight into the specificity of the three compounds for bacterial species, we prepared MalE1 from L. casei as a recombinant protein and used MST to assess the binding of compounds 95,186, 95186b, and 95186c to MalE1.
(§2) The SPs0871 (including mutants) gene fragment encoding amino acids 27–415 was cloned into Escherichia coli expression vector pCold I (for MST) or pCold SUMO, in which the His6-SUMO-tag was introduced into the pCold I vector (Takara, Shiga, Japan). The same process was performed for MalE1 derived from the L. casei gene fragment encoding amino acids 28–410. The recombinant protein was expressed and purified as previously described.
as §1

[3] = system: S. pyogenes strain JRS4; test: Growth assay in CDM supplemented with maltotetraose, JRS4; type: cell-based, Streptococcus pyogenes; conditions: for GAS growth: 0.5% maltotetraose, 1% DMSO, OD600
Description: (§3) Bacteria were incubated in a carbohydrate-free chemically defined medium (CDM) supplemented with maltotetraose, which is thought to be taken up only via the SPs0871 pathway. […] Further, we also evaluated the antibacterial effect of 95,186 against SSI-1 strain, which is isolated from a STSS patient.
(§4) JRS4 and SSI-1 were used as GAS strains. The medium used as well as the procedure up to the assay were the same as previously described. […] For SSI-1, an additional 0.1% glucose was added to the CDM medium containing maltotetraose. To confirm the bacteriostatic effect of compound 95,186, the bacterial culture incubated in CDM was inoculated into THY medium to achieve a final OD600 value of 0.01.

[4] = molecular target: T1, SPs0871; test: SPR analysis of binding to immobilized SPs0871 (Biacore T200); conditions: for concentration-dependent response by SPR (derivatives, cross-validation): 3.125–200 µM
Description: The binding of maltotriose and compound derivatives to SPs0871 was assessed using a Biacore T200 instrument (Cytiva, Marlborough, MA, USA). SPs0871 was immobilized at 4300–4700 RU on the surface of a CM5 sensor chip (Cytiva) by the amine-coupling method according to the manufacturer’s instructions. The running buffer was phosphate buffered saline with Tween (PBS, 0.005% Tween 20), 5% DMSO. To measure the interaction of maltotriose with SPs0871, a range of concentrations of maltotriose (0.039–20 µM) were injected at a flow rate of 30 μL min^–1 with a 20 s association time and a 40 s dissociation time. To measure the interaction of compound derivatives with SPs0871, a range of concentrations of compound derivatives (3.125–200 µM) were injected at a flow rate of 30 μL min^–1 with a 20 s association time and a 40 s dissociation time. Data analysis was carried out using BIAevaluation software (Cytiva, version ver3.2.1, https://www.cytivalifesciences.com/ja/jp/support/software/biacore-downloads?_gl=1*18vz87l*_gcl_au*MjA3MjI1ODE4Ni4xNzQyOTU1NzY3*_ga*OTQ5NDM5MTMyLjE3NDI5NTU3Njg.*_ga_CS9H0CZBWW*MTc0NDQ0NjkwMy41LjEuMTc0NDQ0ODAwNC4wLjAuMA.). The KDs of the interactions were calculated from Scatchard plots.

[5] = system: SPs0871 mutants (E146, K294, W256 mutated to alanine); test: MST binding to recombinant SPs0871 alanine mutants; parameters: species or system Streptococcus pyogenes
Text: To assess whether 95,186 competes with the natural ligand maltotriose in binding to SPs0871, we conducted MST analysis in the presence or absence of maltotriose. […] When we performed additional docking calculations using the Glide docking program (Schrodinger, New York, NY, USA) to identify hotspot residues for the compound binding, E146 and K294 were predicted to form hydrogen bonds and W256 was predicted to form van der Waals interactions during compound binding (Fig. 4B,C). We validated these predictions using recombinant SPs0871 mutants in which these residues were mutated to alanine.
as §2
as §1, with “The buffer was PBS-T (PBS, 0.005% Tween 20), 5% DMSO. A range of concentrations of compounds (15.3 nM to 500 µM) was tested.” left out

[6] = molecular target: T1, SPs0871; test: DSF, melting temperature of SPs0871; type: binding
Text: In the subsequent DSF screening, we measured the Tm value of SPs0871 in the presence of each compound. We also evaluated the structural stabilizing effect of each compound by binding it to SPs0871, which reflected the binding of the compound in the ligand binding pocket and the intramolecular interaction network. We included SPs0871 without small compounds as a negative control in each screening plate. The difference between the Tm value for each compound and the highest negative control Tm value in the same plate was used as the activity value for each compound.
DSF was performed on a CFX Connect Real-Time System (Bio-Rad, Hercules, CA, USA). The buffer was 1 × PBS, 5% DMSO except an experiment to assess the change of Tm value in a sugar concentration-dependent manner (Figure S1), in which DMSO was not added into the buffer. In the initial screening, the final concentration of the compounds was 100 µM and the concentration of SPs0871 was a 2 μM. One thousandth of the sample volume of SYPRO Orange Protein Gel Stain (5000 × concentrated in DMSO; Invitrogen, Waltham, MA, USA) was added, and samples containing 5 × SYPRO Orange were loaded onto 96-well PCR Plates (Bio-Rad) for measurement. The denaturation of protein was observed via fluorescence emitted from SYPRO Orange upon absorption to the exposed hydrophobic surface.

[7] = molecular target: T1, SPs0871; test: SPR screening of direct binding to SPs0871 (Biacore 8K)
Text: In parallel, we conducted SPR screening to evaluate the direct binding of compounds to SPs0871. We immobilized SPs0871 on a sensor chip, flowed each compound to the chip in sequence, and evaluated the response for each compound. The response derived from maltotriose binding was designated as the positive control, with a relative value 100, and the response derived from the injection of running buffer was designated as the negative control, with a relative value 0. The molecular weight corrected value for each compound was used as the activity value.
Direct binding of compounds to SPs0871 was examined using a Biacore 8 K instrument (Cytiva). SPs0871 was immobilized at 3500–5300 RU on the surface of a CM5 sensor chip (Cytiva) by the amine-coupling method according to the manufacturer’s instructions. The running buffer was PBS-T (PBS, 0.005% Tween 20), 5% DMSO. In the screening, the final concentration of each compound was 100 µM, and samples were injected at a flow rate of 30 μL min^–1 with a 30 s association time. To check the concentration dependency, a range of concentrations of the compounds (3.125–50 µM) were injected at a flow rate of 30 μL min^–1 with a 20 s association time and a 30 s dissociation time. […]

[8] = system: SSI-1 strain; test: Growth assay in CDM medium, SSI-1; type: cell-based, Streptococcus pyogenes; conditions: 100 µM compound, 0.5% maltotetraose plus 0.1% glucose
Description: as §3, §4

T1 sequence (A0A0H2UUQ6 entry or part of it): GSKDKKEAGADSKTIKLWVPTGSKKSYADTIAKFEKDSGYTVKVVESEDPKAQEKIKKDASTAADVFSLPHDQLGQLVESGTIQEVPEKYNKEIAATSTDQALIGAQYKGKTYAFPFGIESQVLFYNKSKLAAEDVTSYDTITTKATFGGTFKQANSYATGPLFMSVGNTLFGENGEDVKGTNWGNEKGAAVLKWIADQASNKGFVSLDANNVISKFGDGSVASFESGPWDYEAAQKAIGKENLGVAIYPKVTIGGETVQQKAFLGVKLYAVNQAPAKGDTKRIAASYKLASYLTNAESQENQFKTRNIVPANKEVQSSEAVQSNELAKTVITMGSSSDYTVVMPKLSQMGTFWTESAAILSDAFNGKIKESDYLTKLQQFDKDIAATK

Molecule | concentration-dependent response by MST [1] | Kd [1] | concentration-dependent response changes by MST with MalE1 [2] | GAS growth ([3]; 100 µM compound) | other results
Cc1nn2c(-c3cccc(NC(=O)CN4CCOCC4)c3)nnc2c2ccccc12 [95186b] | concentration-dependent response change | 67.1 µM | No concentration-dependent response changes were detected | suppressed GAS growth | concentration-dependent response by SPR (derivatives, cross-validation) [4]: observed concentration-dependent responses
CCC(=O)Nc1cccc(-c2nnc3c4ccccc4c(C)nn23)c1 [95186c] | concentration-dependent response change | 71.7 µM | No concentration-dependent response changes were detected | suppressed GAS growth | concentration-dependent response by SPR (derivatives, cross-validation) [4]: observed concentration-dependent responses
Cc1nn2c(-c3cccc(NC(=O)CSc4nc5ccccc5o4)c3)nnc2c2ccccc12 [95186g] | no change |  |  |  | 
Cc1nn2c(-c3cccc(NC(=O)CN4CCCCC4)c3)nnc2c2ccccc12 [compound 95186] | showed a concentration-dependent response | 44.7 µM | No concentration-dependent response changes were detected | suppressed GAS growth | MST response in the presence of maltotriose (competition) ([1]; 60 µM maltotriose): concentration-dependent response disappeared; MST response change upon binding to SPs0871 alanine mutants [5]: Only the W256A mutation attenuated the response change upon the binding; growth inhibition potential compared among compounds ([3]; 100 µM compound): highest growth inhibition potential; concentration dependence of growth suppression ([3]; JRS4, maltotetraose medium): concentration dependent above the KD value concentration; bactericidal or bacteriostatic effect ([3]; JRS4 exposed to compound transferred into THY medium, final OD600 0.01): bacteriostatic action; ΔTm at 100 µM ([6]; 100 µM compound, 2 µM SPs0871, hit criterion > 0.4 °C, read-out: DSF activity value (Tm with compound minus highest negative control Tm in the same plate)): 0.6 °C; SPR activity value (molecular weight corrected relative response) ([7]; 100 µM compound, maltotriose response = 100, running buffer = 0, hit criterion ≥ 60): 162; concentration dependence of the binding by SPR ([7]; 3.125–50 µM, three independent experiments): concentration-dependent increase in response was reproducibly observed; maltodextrin dependent growth of SSI-1 [8]: suppressed the maltodexitrin dependent growth of SSI-1
maltotriose [reference compound] |  | 6.2 µM |  |  | increase of the melting temperature of SPs0871 ([6]; DSF, 10 µM maltotriose): 1.2 °C; Kd ([4]; maltotriose 0.039–20 µM, calculated from Scatchard plots, read-out: dissociation constant (KD) by SPR): 0.61 µM

Now from value to molecule, other results behind:

concentration-dependent response by MST [1] | Molecule | Kd [1] | concentration-dependent response changes by MST with MalE1 [2] | GAS growth ([3]; 100 µM compound) | other results
no change | Cc1ccc(-c2nnc3c4ccccc4c(C)nn23)cc1NC(=O)CN1CCCCC1 [95186a] |  |  |  | 
concentration-dependent response change | Cc1nn2c(-c3cccc(NC(=O)c4ccco4)c3)nnc2c2ccccc12 [95186d] |  |  |  | initial optical density at 600 nm (OD600) values ([3]; 100 µM in CDM with maltotetraose): high because of aggregation of the compounds in the medium as well as bacterial growth
no change | Cc1nn2c(-c3cccc(NC(=O)c4ccccc4)c3)nnc2c2ccccc12 [95186e] |  |  |  | 
no change | Cc1nn2c(-c3cccc(NC(=O)COc4ccccc4)c3)nnc2c2ccccc12 [95186f] |  |  |  | 
no change | O=C(CN1CCCCC1)Nc1cccc(C(=O)Nc2cccc(C(F)(F)F)c2)c1 [95186h] |  |  |  | 
